# What was measured:
# [1] = tested on: proinflammatory cytokine tumor necrosis factor (TNF) mRNA; assay: hepatic TNF mRNA expression in high fat diet mouse study (FIG. 16); format: in vivo; conditions: 500 mg/kgBW, 20 weeks
# From the text: (§1) In vivo studies correlate with the in vitro studies. FIGS. 13-18 show comparative graphs of in vivo experimental data showing the effectiveness of xanthohumol when eating a high fat diet. The experiments involved using male C57BL/6N mice purchased from Charles River Laboratories (Sulzfeld, Germany). After two weeks of acclimatization, the mice were fed either standard diet (CTR), standard diet with xanthohumol (XN), high fat diet without providing xanthohumol (HFD), or high fat diet and xanthohumol (HFD+XN). High fat diet in the experiments included a NASH-inducing diet which includes sucrose, cholesterol, and fats rich in saturated fatty acids. In detail, the high fat diet included pork lard (15%), beef tallow (15%), palmitic acid (4%), stearic acid (4%), cholesterol (0.2%), and sucrose (30%). The feeding lasted for 20 weeks. Each experimental group had six mice. The XN and HFD+XN mice were provided with 500 mg of xanthohumol per kg of body weight (kgBW).
# The TNF measurement is an indicator of inflammation in the liver. The mice that ate high fat diet (HFD) had the highest level of TNF mRNA. […] The reduction was by more than 50% of the HFD mice, such that the TNF mRNA of the HFD+XN mice had nearly the same TNF mRNA level as the control mice (CTR). […]
# [2] = tested on: liver cells infected with hepatitis C (HUH7 HCV replicon); assay: efficacy on liver cells infected with hepatitis C vs non-infected liver cells (FIGS. 2 and 3); format: cell-based
# From the text: Thus, use of the invention allows a targeted therapy for reduction or elimination of liver cells infected with the virus.
# [3] = tested on: hepatic stellate cells; assay: transformation of quiescent hepatic stellate cells to activated hepatic stellate cells (FIGS. 6 and 7); format: cell-based; conditions: hepatic stellate cell activation, increasing dosage of xanthohumol
# From the text: FIGS. 6 and 7 illustrate the effect of addition of xanthohumol for the prevention of transformation of the body's own physiologically “quiescent” (non-activated) hepatic stellate cells to activated hepatic stellate cells.
# FIGS. 6 and 7 illustrate the effect of addition of xanthohumol for the prevention of transformation of the body's own, physiologically “quiescent” (non-activated) hepatic stellate cells to activated hepatic stellate cells, which are responsible for scarring of the liver in cirrhosis of the liver.
# [4] = tested on: tissue inhibitor of metalloproteinases 1 (TIMP-1) mRNA; assay: hepatic TIMP-1 mRNA expression in high fat diet mouse study (FIG. 18); format: in vivo; conditions: 500 mg/kgBW, 20 weeks
# From the text: as §1
# (§2) FIGS. 17 and 18 show charts of the detected measurement of hepatic mRNA expressions of Collagen Type I (Coll-I) and profibrogenic factor tissue inhibitor of metalloproteinases 1 (TIMP-1), respectively, of the mice from the experiments (*: p<0.05; normalized so that CTR is set to 1). These methodologies are established markers detecting hepatic fibrosis (e.g., fibrosis of the liver). […]
# [5] = tested on: Collagen Type I (Coll-I) mRNA; assay: hepatic Coll-I mRNA expression in high fat diet mouse study (FIG. 17); format: in vivo; conditions: 500 mg/kgBW, 20 weeks
# From the text: as §1, §2
# [6] = tested on: male C57BL/6N mice; assay: high fat diet (NASH-inducing diet) feeding study in mice, 20 weeks (FIGS. 13-15); format: in vivo; conditions: 500 mg/kgBW
# From the text: as §1
# [7] = tested on: liver cancer cells (HepG2); assay: growth of liver cancer cells (HepG2) over time as a function of xanthohumol dosage (FIG. 5); format: cell-based; conditions: HepG2, increasing concentrations of xanthohumol, pure form (>98%)
# [8] = tested on: activated hepatic stellate cells; assay: destruction (LDH) of activated hepatic stellate cells (FIG. 8); format: cell-based; conditions: increasing dosage of xanthohumol
# [9] = tested on: liver cells; assay: in vitro tests of fat accumulation (steatosis) in liver cells; format: cell-based
# From the text: Another effective method of preventing NASH 102 can be performed by inhibiting inflammation 108 of the liver even when eating a high fat diet. Another effective method of preventing NASH 102 can be performed by inhibiting fibrosis 110 of the liver even when eating a high fat diet. […] Inhibition of fat accumulation, inflammation, and/or fibrosis can also be an effective treatment for slowing down or preventing further progression of the liver disease state (including NASH). […] Inhibition of the reception of fatty acids into liver cells was determined in vitro tests and in vivo experiments.
# [10] = standard diet with xanthohumol (XN), mice
# [11] = standard diet with xanthohumol (XN)
smiles,measurement,setting,value
COc1cc(O)c(CC=C(C)C)c(O)c1C(=O)/C=C/c1ccc(O)cc1 [xanthohumol],reduction of TNF mRNA compared to HFD mice,[1]; HFD+XN,more than 50%
same,TNF mRNA level,[1]; [10],lowest detected levels
same,destruction of liver cells affected by the virus vs healthy liver cells,[2]; healthy liver cells left undamaged,selective destruction
same,replication of the virus,[2]; hepatitis B and C viral damage to the liver,inhibit replication of the virus
same,formation of scar tissue,[3],increasingly suppressed
same,hepatic TIMP-1 mRNA compared to HFD mice,[4]; HFD+XN,substantial reductions
same,hepatic TIMP-1 mRNA level,[4]; [10],about the same as the control mice
same,hepatic Coll-I mRNA compared to HFD mice,[5]; HFD+XN,substantial reductions
same,hepatic Coll-I mRNA level,[5]; [10],about the same as the control mice
same,reduction of ALT level compared to HFD mice,[6]; HFD+XN,~50%
same,reduction of hepatic TG (mg(TG)/mg(protein)) compared to high fat diet without xanthohumol,[6]; HFD+XN,more than 50%
same,ALT level,[6]; [11],lowest detected levels
same,hepatic TG (mg(TG)/mg(protein)) level,[6]; [11],lowest detected levels
same,growth of the cancer cells,[7],progressively inhibited
same,destruction (LDH) of activated hepatic stellate cells,[8],increased effect of destruction
same,viability of the liver cells,[9]; in vitro,does not affect the viability
same,reception of fatty acids into liver cells (formation of steatosis),[9]; in vitro tests and in vivo experiments,directly inhibits
same,fatty degeneration of liver cells,"[9]; in vitro, increased amount of xanthohumol",lessens fatty degeneration
